Columns and labels:
[1] = target: T1, Metabotropic glutamate receptor 1 (Homo sapiens, UniProt Q13255); test: Ability to inhibit mGluR1-alpha-mediated PI (phospho inositol) hydrolysis was determined at BHK cells at 100 Micro M Concentration; Not effective at the highest concentration tested (100 uM); type: functional, cell-based, Mesocricetus auratus
[2] = target: T2, Metabotropic glutamate receptor 4 (Homo sapiens, UniProt Q14833); test: Ability to inhibit mGluR4-alpha induced cAMP formation was determined at BHK cells at 100 Micro M Concentration; Not effective at the highest concentration tested (100 uM); type: functional, cell-based, Mesocricetus auratus
T2 sequence (Q14833 whole entry): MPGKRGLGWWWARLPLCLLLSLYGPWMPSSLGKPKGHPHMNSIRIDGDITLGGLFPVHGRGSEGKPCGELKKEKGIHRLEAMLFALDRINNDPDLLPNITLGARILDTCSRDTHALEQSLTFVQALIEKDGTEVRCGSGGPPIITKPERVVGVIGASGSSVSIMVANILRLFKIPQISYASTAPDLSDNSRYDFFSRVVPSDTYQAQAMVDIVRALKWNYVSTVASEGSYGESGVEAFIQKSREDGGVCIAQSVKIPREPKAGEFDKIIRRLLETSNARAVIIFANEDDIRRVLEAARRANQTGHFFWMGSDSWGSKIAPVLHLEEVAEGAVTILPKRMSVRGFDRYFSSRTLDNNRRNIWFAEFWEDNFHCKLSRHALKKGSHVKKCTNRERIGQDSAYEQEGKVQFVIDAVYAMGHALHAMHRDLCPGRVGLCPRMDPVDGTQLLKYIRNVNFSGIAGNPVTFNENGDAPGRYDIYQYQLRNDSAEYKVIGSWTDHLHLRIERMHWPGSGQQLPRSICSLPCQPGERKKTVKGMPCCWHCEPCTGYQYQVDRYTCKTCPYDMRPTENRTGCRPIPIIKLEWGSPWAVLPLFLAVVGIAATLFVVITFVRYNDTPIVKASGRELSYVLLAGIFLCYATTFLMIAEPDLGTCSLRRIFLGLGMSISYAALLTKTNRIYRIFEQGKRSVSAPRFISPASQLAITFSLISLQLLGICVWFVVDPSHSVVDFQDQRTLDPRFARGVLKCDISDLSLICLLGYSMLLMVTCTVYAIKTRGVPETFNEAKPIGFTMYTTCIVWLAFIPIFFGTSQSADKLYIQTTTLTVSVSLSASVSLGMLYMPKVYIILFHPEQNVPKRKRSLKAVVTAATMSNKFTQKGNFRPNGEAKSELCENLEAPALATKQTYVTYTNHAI

[3] = target: T3, Metabotropic glutamate receptor 2 (Homo sapiens, UniProt Q14416); test: Ability to inhibit mGluR2-alpha induced cAMP formation was determined at BHK cells at 100 Micro M Concentration; Not effective at the highest concentration tested (100 uM); type: functional, cell-based, Mesocricetus auratus
T3 sequence (Q14416 whole entry): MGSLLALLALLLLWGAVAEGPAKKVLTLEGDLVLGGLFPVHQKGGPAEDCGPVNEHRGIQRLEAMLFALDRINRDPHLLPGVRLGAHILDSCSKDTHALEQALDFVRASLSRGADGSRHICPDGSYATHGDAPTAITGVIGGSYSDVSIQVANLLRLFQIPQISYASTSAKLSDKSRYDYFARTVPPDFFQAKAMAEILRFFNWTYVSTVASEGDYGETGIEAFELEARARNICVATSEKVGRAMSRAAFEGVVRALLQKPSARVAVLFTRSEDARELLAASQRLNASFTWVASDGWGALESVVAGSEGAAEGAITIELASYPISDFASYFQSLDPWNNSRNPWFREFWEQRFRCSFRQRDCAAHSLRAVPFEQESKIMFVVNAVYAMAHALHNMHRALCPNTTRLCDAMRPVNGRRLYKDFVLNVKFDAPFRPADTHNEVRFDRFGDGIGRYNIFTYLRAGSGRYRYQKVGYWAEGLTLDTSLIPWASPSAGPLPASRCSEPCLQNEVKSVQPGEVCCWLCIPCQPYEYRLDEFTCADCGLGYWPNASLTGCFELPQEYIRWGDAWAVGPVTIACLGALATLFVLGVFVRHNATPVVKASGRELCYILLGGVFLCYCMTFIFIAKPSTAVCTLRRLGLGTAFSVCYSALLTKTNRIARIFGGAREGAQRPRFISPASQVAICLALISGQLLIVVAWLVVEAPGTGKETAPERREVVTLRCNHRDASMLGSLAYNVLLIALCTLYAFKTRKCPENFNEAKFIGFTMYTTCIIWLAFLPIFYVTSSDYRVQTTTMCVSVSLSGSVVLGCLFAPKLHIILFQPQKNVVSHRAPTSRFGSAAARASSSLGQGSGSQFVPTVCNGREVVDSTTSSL

[4] = target: T3, Metabotropic glutamate receptor 2; test: Ability to inhibit mGluR2-alpha induced cAMP formation was determined at BHK cells at 100 Micro M Concentration; type: functional, cell-based, Mesocricetus auratus
[5] = target: T1, Metabotropic glutamate receptor 1; test: Ability to inhibit mGluR1-alpha-mediated PI (phospho inositol) hydrolysis was determined at BHK cells at 100 Micro M Concentration; type: functional, cell-based, Mesocricetus auratus
[6] = target: T2, Metabotropic glutamate receptor 4; test: Ability to inhibit mGluR4-alpha induced cAMP formation was determined at BHK cells at 100 Micro M Concentration; type: functional, cell-based, Mesocricetus auratus
[7] = target: T3, Metabotropic glutamate receptor 2; test: Ability to inhibit mGluR2-alpha induced cAMP formation was determined at BHK cells at 100 Micro M Concentration; Not effective at the highest concentration tested (100 µM)

T1 sequence (Q13255 whole entry): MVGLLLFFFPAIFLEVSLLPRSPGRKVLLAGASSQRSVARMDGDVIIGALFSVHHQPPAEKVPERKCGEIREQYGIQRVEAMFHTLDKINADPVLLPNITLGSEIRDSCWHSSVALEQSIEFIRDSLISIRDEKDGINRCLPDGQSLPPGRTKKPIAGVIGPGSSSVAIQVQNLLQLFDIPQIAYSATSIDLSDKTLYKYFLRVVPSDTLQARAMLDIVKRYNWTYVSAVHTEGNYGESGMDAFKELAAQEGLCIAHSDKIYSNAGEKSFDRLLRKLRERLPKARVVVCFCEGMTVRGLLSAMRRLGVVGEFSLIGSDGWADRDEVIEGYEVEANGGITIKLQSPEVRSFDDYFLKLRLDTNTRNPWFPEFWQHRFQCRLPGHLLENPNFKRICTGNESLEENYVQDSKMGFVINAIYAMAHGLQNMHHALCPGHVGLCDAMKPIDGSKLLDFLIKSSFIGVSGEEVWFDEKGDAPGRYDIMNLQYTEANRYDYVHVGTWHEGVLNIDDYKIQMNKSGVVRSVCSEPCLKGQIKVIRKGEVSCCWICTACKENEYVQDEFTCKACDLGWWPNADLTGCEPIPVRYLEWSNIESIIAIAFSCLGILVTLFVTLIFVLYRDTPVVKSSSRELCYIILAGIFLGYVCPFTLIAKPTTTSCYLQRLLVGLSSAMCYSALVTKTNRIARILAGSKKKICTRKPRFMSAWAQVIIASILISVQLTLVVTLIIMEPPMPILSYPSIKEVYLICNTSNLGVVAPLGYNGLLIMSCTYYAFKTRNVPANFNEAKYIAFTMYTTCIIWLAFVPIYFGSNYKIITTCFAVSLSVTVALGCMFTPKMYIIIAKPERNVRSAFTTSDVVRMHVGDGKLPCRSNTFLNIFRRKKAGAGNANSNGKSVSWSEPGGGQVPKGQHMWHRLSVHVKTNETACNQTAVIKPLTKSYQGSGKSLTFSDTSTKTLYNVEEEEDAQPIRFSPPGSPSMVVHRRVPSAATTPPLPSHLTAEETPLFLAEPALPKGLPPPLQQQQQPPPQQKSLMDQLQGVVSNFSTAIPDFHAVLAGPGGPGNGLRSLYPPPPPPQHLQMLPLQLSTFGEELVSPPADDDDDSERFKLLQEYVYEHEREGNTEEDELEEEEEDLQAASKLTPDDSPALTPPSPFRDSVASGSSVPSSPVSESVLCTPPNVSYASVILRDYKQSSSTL

NC1(C(=O)O)CCc2c(C(=O)O)cccc21 (stereo not drawn)
IC50 [1]: No effect
IC50 [2]: No effect
IC50 [3]: No effect

CC(N)(C(=O)O)c1ccc(C(=O)O)cc1 (stereo not drawn)
IC50 [4]: 340 µM
IC50 [5]: 155 µM
IC50 [6]: > 1000 µM

NC1(C(=O)O)CCc2cc(C(=O)O)ccc21 (stereo not drawn)
IC50 [5]: 7 µM
IC50 [2]: No effect
IC50 [3]: No effect

NC(C(=O)O)c1ccc(C(=O)O)cc1 (stereo not drawn)
IC50 [4]: 577 µM
IC50 [5]: 65 µM
IC50 [6]: > 1000 µM

NC1(C(=O)O)CCc2ccc(C(=O)O)cc21 (stereo not drawn)
IC50 [7]: No effect
IC50 [1]: No effect
IC50 [2]: No effect

NC(C(=O)O)c1ccc(C(=O)O)c(O)c1 (stereo not drawn)
IC50 [4]: 48 µM
IC50 [5]: 40 µM
IC50 [6]: > 1000 µM

Reference: ChEMBL document CHEMBL1128749, “1-Aminoindan-1,5-dicarboxylic acid: a novel antagonist at phospholipase C-linked metabotropic glutamate receptors” (J Med Chem, 1995)
